Experimental data as given in PMC2361347 (British Journal of Cancer, 2006).
Read-outs that look alike come from different tables or passages of the source.

Columns and labels:
[1] = test system: Ba/F3 cells transfected to express Bcr-Abl Wild-type p210+IL-3; test: cells; settings: Mus musculus, BaF3, read-out: Proliferation IC50
[2] = test system: Ba/F3 cells transfected to express Bcr-Abl Wild-type p210; test: cells; settings: Mus musculus, BaF3, read-out: Proliferation IC50
[3] = test system: Ba/F3 cells transfected to express Bcr-Abl M237I (p185); test: cells; settings: Mus musculus, BaF3, read-out: Proliferation IC50
[4] = test system: imatinib-resistant BCR-ABL mutants; settings: number of mutants / mutants tested; Table 1
T315I mutant = settings: Table 1
[5] = test system: Ba/F3 cells transfected to express Bcr-Abl L248V (p185); test: cells; settings: Mus musculus, BaF3, read-out: Proliferation IC50
[6] = test system: Ba/F3 cells transfected to express Bcr-Abl G250A (p185); test: cells; settings: Mus musculus, BaF3, read-out: Proliferation IC50
[7] = test system: Ba/F3 cells transfected to express Bcr-Abl G250E (p185); test: cells; settings: Mus musculus, BaF3, read-out: Proliferation IC50
[8] = test system: Ba/F3 cells transfected to express Bcr-Abl G250V (p185); test: cells; settings: Mus musculus, BaF3, read-out: Proliferation IC50
[9] = test system: Ba/F3 cells transfected to express Bcr-Abl Y253H (p185); test: cells; settings: Mus musculus, BaF3, read-out: Proliferation IC50
[10] = test system: Ba/F3 cells transfected to express Bcr-Abl E255D (p185); test: cells; settings: Mus musculus, BaF3, read-out: Proliferation IC50
[11] = test system: Ba/F3 cells transfected to express Bcr-Abl E255K (p185); test: cells; settings: Mus musculus, BaF3, read-out: Proliferation IC50
[12] = test system: Ba/F3 cells transfected to express Bcr-Abl E255K (p210); test: cells; settings: Mus musculus, BaF3, read-out: Proliferation IC50
[13] = test system: Ba/F3 cells transfected to express Bcr-Abl E255V (p210); test: cells; settings: Mus musculus, BaF3, read-out: Proliferation IC50
[14] = test system: Ba/F3 cells transfected to express Bcr-Abl E275K (p185); test: cells; settings: Mus musculus, BaF3, read-out: Proliferation IC50
[15] = test system: Ba/F3 cells transfected to express Bcr-Abl E281K (p185); test: cells; settings: Mus musculus, BaF3, read-out: Proliferation IC50
[16] = test system: Ba/F3 cells transfected to express Bcr-Abl K285N (p185); test: cells; settings: Mus musculus, BaF3, read-out: Proliferation IC50
[17] = test system: Ba/F3 cells transfected to express Bcr-Abl E292K (p210); test: cells; settings: Mus musculus, BaF3, read-out: Proliferation IC50
[18] = test system: Ba/F3 cells transfected to express Bcr-Abl F311V (p185); test: cells; settings: Mus musculus, BaF3, read-out: Proliferation IC50
[19] = test system: Ba/F3 cells transfected to express Bcr-Abl T315I (p210); test: cells; settings: Mus musculus, BaF3, read-out: Proliferation IC50
[20] = test system: Ba/F3 cells transfected to express Bcr-Abl F317C (p185); test: cells; settings: Mus musculus, BaF3, read-out: Proliferation IC50
[21] = test system: Ba/F3 cells transfected to express Bcr-Abl F317L (p210); test: cells; settings: Mus musculus, BaF3, read-out: Proliferation IC50
[22] = test system: Ba/F3 cells transfected to express Bcr-Abl F317V (p185); test: cells; settings: Mus musculus, BaF3, read-out: Proliferation IC50
[23] = test system: Ba/F3 cells transfected to express Bcr-Abl E355A (p185); test: cells; settings: Mus musculus, BaF3, read-out: Proliferation IC50
[24] = test system: Ba/F3 cells transfected to express Bcr-Abl E355G (p185); test: cells; settings: Mus musculus, BaF3, read-out: Proliferation IC50
[25] = test system: Ba/F3 cells transfected to express Bcr-Abl F359C (p185); test: cells; settings: Mus musculus, BaF3, read-out: Proliferation IC50
[26] = test system: Ba/F3 cells transfected to express Bcr-Abl F359V (p185); test: cells; settings: Mus musculus, BaF3, read-out: Proliferation IC50
[27] = test system: Ba/F3 cells transfected to express Bcr-Abl A380S (p185); test: cells; settings: Mus musculus, BaF3, read-out: Proliferation IC50
[28] = test system: Ba/F3 cells transfected to express Bcr-Abl L387F (p185); test: cells; settings: Mus musculus, BaF3, read-out: Proliferation IC50
[29] = test system: Ba/F3 cells transfected to express Bcr-Abl M388L (p185); test: cells; settings: Mus musculus, BaF3, read-out: Proliferation IC50
[30] = test system: Ba/F3 cells transfected to express Bcr-Abl F486S (p210); test: cells; settings: Mus musculus, BaF3, read-out: Proliferation IC50
KBM5 = test system: KBM5; parameters: method as in Golemovic et al, 2005; settings: KBM5 cell line; ref Golemovic et al, 2005; cited from earlier work
KBM7 = test system: KBM7; parameters: method as in Golemovic et al, 2005; settings: KBM7 cell line; ref Golemovic et al, 2005; cited from earlier work
[31] = parameters: method as in Kantarjian et al, 2006; settings: patients receiving 400 mg b.i.d.; ref Kantarjian et al, 2006; cited from earlier work
[32] = test system: imatinib-resistant CML mouse models; parameters: method as in Weisberg et al, 2005; settings: ref Weisberg et al, 2005; cited from earlier work
[33] = test system: imatinib-resistant CML patients and Ph+ ALL patients; settings: cited from earlier work; for CML patients who have responded: early-phase clinical findings
[34] = test system: mice injected with BCR-ABL-transformed haematopoietic cell lines or primary marrow cells; settings: ref Weisberg et al, 2005; cited from earlier work
[35] = test system: newly diagnosed patients in the chronic phase of CML; settings: cited from earlier work; for annual rate of progression (resulting in death): IRIS study
[36] = accelerated phase CML patients, ref Kantarjian et al, 2006
[37] = blast-phase CML patients, ref Kantarjian et al, 2006
[38] = chronic phase CML patients, ref Kantarjian et al, 2006
[39] = newly diagnosed chronic-phase patients, ref Simonsson, 2005

Cc1cn(-c2cc(NC(=O)c3ccc(C)c(Nc4nccc(-c5cccnc5)n4)c3)cc(C(F)(F)F)c2)cn1 [AMN107]
IC50 [1]: > 10000 nM | IC50 [2]: 25 ± 1 nM | IC50 [3]: 43 ± 8.7 nM | imatinib-resistant BCR-ABL mutants against which activity is maintained [4]: 32/33 | activity against the T315I mutant (T315I mutant): no significant activity | IC50 [5]: 102 ± 13 nM | IC50 [6]: 65 ± 5.6 nM | IC50 [7]: 145 ± 32 nM | IC50 [8]: 19 ± 1.4 nM | IC50 [9]: 700 ± 116 nM | IC50 [10]: 27 ± 3.1 nM | IC50 [11]: 308 ± 42 nM | IC50 [12]: 548 ± 72 nM | IC50 [13]: 791 ± 67 nM | IC50 [14]: 44 ± 17.1 nM | IC50 [15]: 40 ± 9.8 nM | IC50 [16]: 57 ± 12 nM | IC50 [17]: 81 ± 8 nM | IC50 [18]: 155 ± 31 nM | IC50 [19]: > 10000 nM | IC50 [20]: 20 ± 3.1 nM | IC50 [21]: 91 ± 6.5 nM | IC50 [22]: 28 ± 4 nM | IC50 [23]: 35 ± 6.7 nM | IC50 [24]: 47 ± 8 nM | IC50 [25]: 258 ± 61 nM | IC50 [26]: 161 ± 61 nM | IC50 [27]: 164 ± 27 nM | IC50 [28]: 46 ± 7.2 nM | IC50 [29]: 18 ± 2.6 nM | IC50 [30]: 75 ± 7 nM | times more potent than imatinib (KBM5): 43 times | times more potent than imatinib (KBM7): 60 times | apparent half-life [31]: 15 h | mean peak plasma level [31]: 3.6 µM | mean trough plasma level [31]: 1.7 µM | survival [32]: prolong survival | maximum tolerated dose ([33]; Phase I, 50–1200 mg day−1 for up to 385 days, ref Kantarjian et al, 2006): 600 mg b.i.d. | cytogenetic responses [33, 36]: 48% | haematological responses [33, 36]: 72% | cytogenetic responses [33, 37]: 27% | haematological responses [33, 37]: 39% | cytogenetic responses [33, 38]: 53% | haematological responses [33, 38]: 92% | CML patients who have responded ([33]; early, chronic-phase patients): over 90% | imatinib-resistant Ph+ ALL patients who responded ([33]; of 13 Ph+ ALL patients, ref Kantarjian et al, 2006): Two | CML patients who have responded ([33]; patients with advanced disease): Greater than 70% | survival of mice [34]: prolong the survival

Cc1ccc(NC(=O)c2ccc(CN3CCN(C)CC3)cc2)cc1Nc1nccc(-c2cccnc2)n1 [Imatinib]
annual rate of progression (resulting in death) ([35]; after 1 year of therapy): 3.4% | annual rate of progression (resulting in death) ([35]; after 2 years of therapy): 7.5% | annual rate of progression (resulting in death) ([35]; after 3 years of therapy): 4.8% | annual rate of progression (resulting in death) ([35]; after 4 years of therapy): 1.5% | complete cytogenetic responses [35, 39]: 86% | complete haematologic remissions [35, 39]: 98%
